Counter-ions that a name gives are not always drawn.
What was measured:
[1] = biological target: T1, TBK1 (Homo sapiens, UniProt Q9UHD2); experiment: TBK Biochemical Assay; conditions: read-out: TBK1 IC50
T1 sequence (Q9UHD2 1-729): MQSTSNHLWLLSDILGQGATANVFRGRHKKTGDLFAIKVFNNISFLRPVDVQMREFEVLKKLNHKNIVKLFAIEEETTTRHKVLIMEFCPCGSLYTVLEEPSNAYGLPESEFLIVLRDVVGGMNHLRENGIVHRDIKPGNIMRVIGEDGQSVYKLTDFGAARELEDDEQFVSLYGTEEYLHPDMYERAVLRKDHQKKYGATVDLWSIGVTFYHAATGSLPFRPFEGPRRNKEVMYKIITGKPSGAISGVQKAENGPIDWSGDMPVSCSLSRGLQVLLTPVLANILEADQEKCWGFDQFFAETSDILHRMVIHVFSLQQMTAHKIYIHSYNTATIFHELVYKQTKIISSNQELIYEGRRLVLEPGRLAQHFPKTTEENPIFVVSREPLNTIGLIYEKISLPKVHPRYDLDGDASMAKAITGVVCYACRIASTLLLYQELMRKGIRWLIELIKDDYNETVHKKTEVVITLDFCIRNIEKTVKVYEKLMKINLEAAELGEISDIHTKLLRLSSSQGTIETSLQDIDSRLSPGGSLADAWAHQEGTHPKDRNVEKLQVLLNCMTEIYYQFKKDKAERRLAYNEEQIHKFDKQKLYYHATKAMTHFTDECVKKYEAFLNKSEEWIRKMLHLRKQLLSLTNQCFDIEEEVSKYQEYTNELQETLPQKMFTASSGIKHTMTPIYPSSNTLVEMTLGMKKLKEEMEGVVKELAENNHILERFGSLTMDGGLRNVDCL
Procedure: Example 482: TBK Biochemical Assay
(§1) Test compounds were transferred into Labcyte polypropylene 384 well plates (P055-25) and diluted to 3 mM using DMSO. 3 mM test compounds were dispensed using Labcyte ECHO dose response module into Greiner 784075 plates (columns 3-12 and 13-22, 10 point 1:4) so that high concentration was 30 uM final. 100 uM of a reference compound (1 uM final high concentration). Backfilling was performed if necessary so that all wells contain 1% DMSO final: […]
(§2) add 75 nl DMSO/well into columns 1, 2 and 24 using Labcyte Echo. add 75 nl 1.0 mM staurosporine/well into column 23 using Labcyte Echo ([…]) add 4.5 ul enzyme/well using multidrop dispenser add 3 ul substrate/well using multidrop dispenser incubate at 25° C. in Heidolph incubator for 90 min. add 7.5 ul 2× stop buffer using multidrop dispenser read on labchip ez reader II using TBK1.job
(§3) Raw data files were opened in the Caliper LabChip Reviewer program (Version 3.0.265.0 SP2) and peak assignments were adjusted to reflect “substrate first” with the software's post-run analysis options. A spline-fit baseline was applied using the software's analysis algorithm.

[2] = biological target: T2, IKKε (Homo sapiens, UniProt Q14164); experiment: IKKe Biochemical Assay; conditions: read-out: IKKε IC50
T2 sequence (Q14164 1-716): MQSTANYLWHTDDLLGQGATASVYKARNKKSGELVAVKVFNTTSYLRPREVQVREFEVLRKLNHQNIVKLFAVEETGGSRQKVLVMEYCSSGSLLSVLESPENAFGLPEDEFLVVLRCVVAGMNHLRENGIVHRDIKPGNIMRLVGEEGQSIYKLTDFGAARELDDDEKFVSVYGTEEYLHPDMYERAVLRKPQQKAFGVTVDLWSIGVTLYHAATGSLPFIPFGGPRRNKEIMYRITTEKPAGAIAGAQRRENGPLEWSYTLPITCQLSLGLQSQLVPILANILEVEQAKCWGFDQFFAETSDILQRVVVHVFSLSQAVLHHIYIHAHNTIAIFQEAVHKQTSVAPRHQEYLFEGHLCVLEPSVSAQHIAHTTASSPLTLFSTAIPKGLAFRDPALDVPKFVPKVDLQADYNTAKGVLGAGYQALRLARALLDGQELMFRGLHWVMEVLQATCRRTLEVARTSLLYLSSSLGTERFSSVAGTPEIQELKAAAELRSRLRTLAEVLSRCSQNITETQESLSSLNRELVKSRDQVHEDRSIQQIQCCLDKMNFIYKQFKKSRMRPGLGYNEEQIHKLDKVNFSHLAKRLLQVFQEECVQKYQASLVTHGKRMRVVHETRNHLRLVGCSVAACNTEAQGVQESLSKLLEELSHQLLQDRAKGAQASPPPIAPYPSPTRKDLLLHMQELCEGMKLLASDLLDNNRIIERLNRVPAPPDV
Procedure: as §1, with “(Greiner” for “Greiner”
as §2, with “C.” for “C. in Heidolph incubator”, “buffer” for “buffer using multidrop dispenser”, “IKKε. job” for “TBK1.job”
as §3

Structure (SMILES) | IC50 [1] [µM] | IC50 [2] [µM]
CN(C)C(=O)c1ccc(-c2cc3ncc(C4CC4)c(-c4ccc(NC5CCOCC5)c(C#N)c4)c3o2)c(F)c1 [Compound 309, 4-(7-[3-cyano-4-[(oxan-4-yl)amino]phenyl]-6-cyclopropylfuro[3,2-b]pyridin-2-yl)-3-fluoro-N,N-dimethylbenzamide] | > 5 | 
CN(C)C(=O)c1cnc(-c2cc3nccc(-c4cc(F)c(NC5CCOCC5)c(C#N)c4)c3o2)c(F)c1 [Compound 248, 6-(7-(3-cyano-5-fluoro-4-(tetrahydro-2H-pyran-4-ylamino)phenyl)furo[3,2-b]pyridin-2-yl)-5-fluoro-N,N-dimethylnicotinamide] |  | 0.1 to 1
CC1COCC(C)C1Oc1c(F)cc(-c2ccnc3cc(-c4ccc(C(=O)N(C)C)cc4)oc23)cc1C#N (centres unmarked) [Compound 289, 4-(7-[3-cyano-4-[(3,5-dimethyloxan-4-yl)oxy]-5-fluorophenyl]furo[3,2-b]pyridin-2-yl)-N,N-dimethylbenzamide] | > 5 | 
CC1CC(Oc2ccc(-c3ccnc4cc(-c5ccc(C(=O)N(C)C)cc5)oc34)cc2C#N)CC(C)O1 (centres unmarked) [Compound 213, 4-{7-[3-Cyano-4-(2,6-dimethyl-tetrahydro-pyran-4-yloxy)-phenyl]-furo[3,2-b]pyridin-2-yl}-N,N-dimethyl-benzamide] |  | > 5
COc1cc(C(=O)N(C)C)ccc1-c1cc2nccc(-c3cc(F)c(OC4C(C)COCC4C)c(C#N)c3)c2o1 (centres unmarked) [Compound 294, 4-(7-[3-cyano-4-[(3,5-dimethyloxan-4-yl)oxy]-5-fluorophenyl]furo[3,2-b]pyridin-2-yl)-3-methoxy-N,N-dimethylbenzamide] | > 5 | 
CN(C)C(=O)c1ccc(-c2cc3ncc(C4CC4)c(-c4ccc(OC5CCOCC5)c(C#N)c4)c3o2)c(F)c1 [Compound 310, 4-[7-[3-cyano-4-(oxan-4-yloxy)phenyl]-6-cyclopropylfuro[3,2-b]pyridin-2-yl]-3-fluoro-N,N-dimethylbenzamide] | > 5 | 
COC(=O)c1ccc(-c2cc3nccc(-c4ccc(OC5CC6(COC6)C5)c(C#N)c4)c3o2)cc1 [Compound 204] |  | 0.1 to 1
CN(C)C(=O)c1ccc(-c2cc3nccc(-c4cc(F)c(OC5CCOC6(CC6)C5)c(C#N)c4)c3o2)cc1 (centres unmarked) [Compound 288, 4-[7-(3-cyano-5-fluoro-4-[4-oxaspiro[2.5]octan-7-yloxy]phenyl)furo[3,2-b]pyridin-2-yl]-N,N-dimethylbenzamide hydrochloride] | > 5 | 
CN(CCO)C(=O)c1ccc(-c2cc3ncc(C4CC4)c(-c4ccc(NC5CCOCC5)c(C#N)c4)c3o2)c(F)c1 [Compound 311, 4-(7-(3-cyano-4-(tetrahydro-2H-pyran-4-ylamino)phenyl)-6-cyclopropylfuro[3,2-b]pyridin-2-yl)-3-fluoro-N-(2-hydroxyethyl)-N-methylbenzamide] | > 5 | 
COc1cc(C(=O)N(C)C)ccc1-c1cc2nccc(-c3cc(F)c(OC4CCOC5(CC5)C4)c(C#N)c3)c2o1 (centres unmarked) [Compound 293, 4-[7-(3-cyano-5-fluoro-4-[4-oxaspiro[2.5]octan-7-yloxy]phenyl)furo[3,2-b]pyridin-2-yl]-3-methoxy-N,N-dimethylbenzamide] | > 5 | 

More lines, now with the values ahead:

IC50 [1] [µM] | IC50 [2] [µM] | Structure (SMILES)
> 5 |  | COc1cc(C(=O)N(C)C)cnc1-c1cc2ncc(C(C)C)c(-c3ccc(NC4CCOCC4)c(C#N)n3)c2o1 [Compound 361, 6-(7-[6-cyano-5-[(oxan-4-yl)amino]pyridin-2-yl]-6-(propan-2-yl)furo[3,2-b]pyridin-2-yl)-5-methoxy-N,N-dimethylpyridine-3-carboxamide]
> 5 |  | COc1cc(C(=O)N(C)C)cnc1-c1cc2ncc(C(C)C)c(-c3ccc(OC4CCOCC4)c(C#N)c3)c2o1 [Compound 332, 6-[7-[3-cyano-4-(oxan-4-yloxy)phenyl]-6-(propan-2-yl)furo[3,2-b]pyridin-2-yl]-5-methoxy-N,N-dimethylpyridine-3-carboxamide]
> 5 |  | COc1cc(C(=O)N(C)C)cnc1-c1cc2ncc(C3CC3)c(-c3ccc(NC4CCOCC4)c(C#N)c3)c2o1 [Compound 522, 6-(7-[3-cyano-4-[(oxan-4-yl)amino]phenyl]-6-cyclopropylfuro[3,2-b]pyridin-2-yl)-5-methoxy-N,N-dimethylpyridine-3-carboxamide]
> 5 |  | COc1ccc(C#N)cc1-c1ccnc2cc(-c3ncc(C(=O)N(C)C)cc3OC)oc12 [Compound 490, 6-{7-[5-Cyano-2-methoxy-phenyl)-furo[3,2-b]pyridin-2-yl}-5-methoxy-N,N-dimethyl-nicotinamide]
> 5 |  | COc1cc(C(=O)N(C)CCO)cnc1-c1cc2ncc(C(C)C)c(-c3ccc(OC4CCOCC4)c(C#N)n3)c2o1 [Compound 359, 6-[7-[6-cyano-5-(oxan-4-yloxy)pyridin-2-yl]-6-(propan-2-yl)furo[3,2-b]pyridin-2-yl]-N-(2-hydroxyethyl)-5-methoxy-N-methylpyridine-3-carboxamide hydrochloride]
> 5 |  | COc1cc(C(=O)N(C)C)cnc1-c1cc2ncc(C(C)C)c(-c3ccc(NC4CCOCC4)c(C#N)c3)c2o1 [Compound 335, 6-(7-[3-cyano-4-[(oxan-4-yl)amino]phenyl]-6-(propan-2-yl)furo[3,2-b]pyridin-2-yl)-5-methoxy-N,N-dimethylpyridine-3-carboxamide hydrochloride]
> 5 |  | COc1cc(C(=O)N(C)C)cnc1-c1cc2ncc(C(C)C)c(-c3ccc(OC4CCOCC4)c(C#N)n3)c2o1 [Compound 331, 6-[7-[6-cyano-5-(oxan-4-yloxy)pyridin-2-yl]-6-(propan-2-yl)furo[3,2-b]pyridin-2-yl]-5-methoxy-N,N-dimethylpyridine-3-carboxamide hydrochloride]
> 5 |  | CN(CCO)C(=O)c1ccc(-c2cc3ncc(C4CC4)c(-c4ccc(OC5CCOCC5)c(C#N)c4)c3o2)c(F)c1 [Compound 312, 4-(7-(3-cyano-4-(tetrahydro-2H-pyran-4-yloxy)phenyl)-6-cyclopropylfuro[3,2-b]pyridin-2-yl)-3-fluoro-N-(2-hydroxyethyl)-N-methylbenzamide]
> 5 |  | COc1cc(C(=O)N(C)C)cnc1-c1cc2ncc(Cl)c(-c3ccc(NC4CCOCC4)c(C#N)c3)c2o1 [Compound 337, 6-(6-chloro-7-[3-cyano-4-[(oxan-4-yl)amino]phenyl]furo[3,2-b]pyridin-2-yl)-5-methoxy-N,N-dimethylpyridine-3-carboxamide]
> 5 |  | COc1cc(C(=O)N(C)C)cnc1-c1cc2ncc(C3CC3)c(-c3ccc(NC4CCOCC4)c(C#N)n3)c2o1 [Compound 353, 6-(7-[6-cyano-5-[(oxan-4-yl)amino]pyridin-2-yl]-6-cyclopropylfuro[3,2-b]pyridin-2-yl)-5-methoxy-N,N-dimethylpyridine-3-carboxamide hydrochloride]

— patent US10428080B2, “TBK/IKK inhibitor compounds and uses thereof” (Merck Patent GmbH, priority 2015, dated 2019)
